Assay results reported in US20230127839A1, “COMPOUNDS AND COMPOSITIONS FOR TREATING CONDITIONS ASSOCIATED WITH STING ACTIVITY” (IFM Due, Inc., priority 2019, published 2023).

Biological target: T1, hSTING (Homo sapiens, UniProt Q86WV6, G230A/H232R/R293Q/R71H)
T1 construct: host or cells: THP1-Dual KO-IFNAR2 cells
Experiment: STING reporter assay (luciferase) in THP1-Dual KO-IFNAR2 cells stimulated with 2'3'cGAMP
Assay type: cell-based
Conditions: 2'3'cGAMP 15 μM, 24 h, luciferase reporter activity
Procedure, shortened: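 THP1-Dual KO-IFNAR2 cells (2×10E6 cells/mL) exposed to compounds at 0.0017-100 μM final, then stimulated with 2′3′cGAMP (15 μM final) delivered by Lipofectamine 2000 transfection. After 24 h at 37° C, secreted luciferase in supernatant read by QUANTI-Luc luminescence; EC50 calculated.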

T1 sequence (Q86WV6 whole entry R71H/G230A/H232R/R293Q): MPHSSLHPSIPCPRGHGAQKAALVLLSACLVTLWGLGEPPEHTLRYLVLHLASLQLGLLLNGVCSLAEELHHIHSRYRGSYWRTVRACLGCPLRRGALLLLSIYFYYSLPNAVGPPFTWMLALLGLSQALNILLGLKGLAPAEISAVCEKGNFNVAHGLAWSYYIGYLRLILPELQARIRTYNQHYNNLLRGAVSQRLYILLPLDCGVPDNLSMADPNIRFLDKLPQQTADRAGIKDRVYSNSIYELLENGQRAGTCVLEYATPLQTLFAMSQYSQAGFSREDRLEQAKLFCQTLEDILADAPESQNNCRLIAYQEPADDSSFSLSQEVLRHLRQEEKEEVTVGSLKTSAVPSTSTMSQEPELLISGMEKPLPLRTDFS

Compound	EC50 [nM]
O=C(Nc1cnn(C2CC(F)(F)C2)c1)Nc1c[nH]c2ccc(Cl)cc12 [Compound 215, 1-(5-chloro-1H-indol-3-yl)-3-(1-(3,3-difluorocyclobutyl)-1H-pyrazol-4-yl)urea]	200 to 1000
O=C(Nc1cnn(C2CC(F)(F)C2)c1)Nc1c[nH]c2cc(F)c(F)cc12 [Compound 216, 1-(5,6-difluoro-1H-indol-3-yl)-3-(1-(3,3-difluorocyclobutyl)-1H-pyrazol-4-yl)urea]	1000 to 5000
CC(CC1CCC1)n1cc(NC(=O)Nc2c[nH]c3ccc(Cl)cc23)cn1 (stereo not shown) [Compound 217, 1-(5-chloro-1H-indol-3-yl)-3-(1-(1-cyclobutylpropan-2-yl)-1H-pyrazol-4-yl)urea]	200 to 1000
O=C(Nc1ccc(C2CN(CC(F)(F)F)C2)c(Cl)c1)Nc1c[nH]c2ccc(Cl)cc12 [Compound 218, 1-(5-chloro-1H-indol-3-yl)-3-(3-chloro-4-(1-(2,2,2-trifluoroethyl)azetidin-3-yl)phenyl)urea]	40 to 200
O=C(Nc1ccnc(C2CCCN(CC(F)(F)F)C2)c1)Nc1c[nH]c2cc(F)c(F)cc12 (stereo not shown) [Compound 219, 1-(5,6-difluoro-1H-indol-3-yl)-3-(2-(1-(2,2,2-trifluoroethyl)piperidin-3-yl)pyridin-4-yl)urea]	1000 to 5000
O=C(Nc1ccnc(C2CCC(F)(F)CC2)c1)Nc1c[nH]c2cc(F)c(F)cc12 [Compound 220, 1-(5,6-difluoro-1H-indol-3-yl)-3-(2-(4,4-difluorocyclohexyl)pyridin-4-yl)urea]	200 to 1000
O=C(Nc1cnn(C2CCN(CCC(F)(F)F)CC2)c1)Nc1c[nH]c2ccc(Cl)cc12 [Compound 223, 1-(5-chloro-1H-indol-3-yl)-3-(1-(1-(3,3,3-trifluoropropyl)piperidin-4-yl)-1H-pyrazo1-4-yl)urea]	1000 to 5000
O=C(Nc1ccc(C2CC(F)(F)C2)c(Cl)c1)Nc1c[nH]c2cc(F)c(F)cc12 [Compound 225, 1-(3-chloro-4-(3,3-difluorocyclobutyl)phenyl)-3-(5,6-difluoro-1H-indol-3-yl)urea]	200 to 1000
O=C(Nc1ccc(C2CC(F)(F)C2)c(Cl)c1)Nc1c[nH]c2ccc(Cl)cc12 [Compound 226, 1-(5-chloro-1H-indol-3-yl)-3-(3-chloro-4-(3,3-difluorocyclobutyl)phenyl)urea]	40 to 200
O=C(Nc1cnc(C2CC(F)(F)C2)c(F)c1)Nc1c[nH]c2ccc(Cl)cc12 [Compound 227, 1-(5-chloro-1H-indol-3-yl)-3-(6-(3,3-difluorocyclobutyl)-5-fluoropyridin-3-yl)urea]	40 to 200
COCCN(C(=O)Nc1c[nH]c2ccc(Cl)cc12)c1cnc(C2CCC(F)(F)CC2)c(Cl)c1 [Compound 228, 3-(5-chloro-1H-indol-3-yl)-1-(5-chloro-6-(4,4-difluorocyclohexyl)pyridin-3-yl)-1-(2-methoxyethyl)urea]	200 to 1000
CCN(C(=O)Nc1c[nH]c2ccc(Cl)cc12)c1cnc(C2CCN(CC(F)(F)F)CC2)c(Cl)c1 [Compound 229, 3-(5-chloro-1H-indol-3-yl)-1-(5-chloro-6-(1-(2,2,2-trifluoroethyl)piperidin-4-yl)pyridin-3-yl)-1-ethylurea]	200 to 1000
O=C(Nc1cnn(C2CCC(F)(F)CC2)c1)Nc1c[nH]c2cc(F)c(Cl)cc12 [Compound 230, 1-(5-chloro-6-fluoro-1H-indol-3-yl)-3-(1-(4,4-difluorocyclohexyl)-1H-pyrazol-4-yl)urea]	200 to 1000
O=C(Nc1cnc(Cl)c(C2CCC(F)(F)CC2)c1)Nc1c[nH]c2ccc(Cl)cc12 [Compound 231, 1-(5-chloro-1H-indol-3-yl)-3-(6-chloro-5-(4,4-difluorocyclohexyl)pyridin-3-yl)urea]	40 to 200
O=C(Nc1cnc(N2CC(C(F)(F)F)C2)c(Cl)c1)Nc1c[nH]c2ccc(Cl)cc12 [Compound 233, 1-(5-chloro-1H-indol-3-yl)-3-(5-chloro-6-(3-(trifluoromethyl)azetidin-1-yl)pyridin-3-yl)urea]	40 to 200
O=C(Nc1cnn(C2CC3(C2)CC(F)(F)C3)c1)Nc1c[nH]c2ccc(Cl)cc12 [Compound 234, 1-(5-chloro-1H-indol-3-yl)-3-(1-(6,6-difluorospiro[3.3]heptan-2-yl)-1H-pyrazo1-4-yl)urea]	40 to 200
O=C(Nc1cnn(CC2CCC2)c1)Nc1c[nH]c2ccc(Cl)cc12 [Compound 235, 1-(5-chloro-1H-indol-3-yl)-3-(1-(cyclobutylmethyl)-1H-pyrazol-4-yl)urea]	200 to 1000
O=C(Nc1cnc(N2CCC3(CC2)CC3(F)F)c(Cl)c1)Nc1c[nH]c2cc(F)c(F)cc12 [Compound 236, 1-(5-chloro-6-(1,1-difluoro-6-azaspiro[2.5]octan-6-yl)pyridin-3-yl)-3-(5,6-difluoro-1H-indol-3-yl)urea]	40 to 200
O=C(Nc1cnc(C2CCN(CC(F)(F)F)C2)c(Cl)c1)Nc1c[nH]c2ccc(Cl)cc12 (stereo not shown) [Compound 238, 1-(5-chloro-1H-indol-3-yl)-3-(5-chloro-6-(1-(2,2,2-trifluoroethyl)pyrrolidin-3-yl)pyridin-3-yl)urea]	40 to 200
O=C(Nc1cnc(N2CCC3(CC2)CC3)c(Cl)c1)Nc1c[nH]c2ccc(F)cc12 [Compound 239, 1-(5-chloro-6-(6-azaspiro[2.5]octan-6-yl)pyridin-3-yl)-3-(5-fluoro-1H-indol-3-yl)urea]	40 to 200
O=C(Nc1cnc(N2CCC3(CC2)CC3)c(Cl)c1)Nc1c[nH]c2cc(F)c(F)cc12 [Compound 241, 1-(5-chloro-6-(6-azaspiro[2.5]octan-6-yl)pyridin-3-yl)-3-(5,6-difluoro-1H-indol-3-yl)urea]	40 to 200
O=C(Nc1cnc(C2CCN(CCC(F)(F)F)C2)c(Cl)c1)Nc1c[nH]c2ccc(Cl)cc12 (stereo not shown) [Compound 242, 1-(5-chloro-1H-indol-3-yl)-3-(5-chloro-6-(1-(3,3,3-trifluoropropyl)pyrrolidin-3-yl)pyridin-3-yl)urea]	40 to 200
O=C(Nc1cnc(N2CC3(C2)CC(F)(F)C3)c(Cl)c1)Nc1c[nH]c2c(Br)cc(Cl)cc12 [Compound 244, 1-(7-bromo-5-chloro-1H-indol-3-yl)-3-(5-chloro-6-(6,6-difluoro-2-azaspiro[3.3]heptan-2-yl)pyridin-3-yl)urea]	1000 to 5000
O=C(Nc1cnc(N2CCN(CCC(F)(F)F)CC2)c(Cl)c1)Nc1c[nH]c2ccc(F)cc12 [Compound 245, 1-(5-chloro-6-(4-(3,3,3-trifluoropropyl)piperazin-1-yl)pyridin-3-yl)-3-(5-fluoro-1H-indol-3-yl)urea]	40 to 200
O=C(Nc1cnc(C2CCC(F)(F)CC2)c(Cl)c1)Nc1c[nH]c2c(Br)cc(Cl)cc12 [Compound 247, 1-(7-bromo-5-chloro-1H-indol-3-yl)-3-(5-chloro-6-(4,4-difluorocyclohexyl)pyridin-3-yl)urea]	200 to 1000
O=C(Nc1cnc(C2CCC(F)(F)CC2)c(Cl)c1)Nc1c[nH]c2ccccc12 [Compound 248, 1-(5-chloro-6-(4,4-difluorocyclohexyl)pyridin-3-yl)-3-(1H-indol-3-yl)urea]	40 to 200

Results, then the compound that gave them:

EC50 [nM]	Compound
1000 to 5000	O=C(Nc1cn(C2CCC(F)(F)CC2)cn1)Nc1c[nH]c2ccc(Cl)cc12 [Compound 212, 3-(5-chloro-1H-indol-3-yl)-1-[1-(4,4-difluorocyclohexyl)imidazol-4-yl]urea]
1000 to 5000	O=C(Nc1ccnc(C2CCN(CC(F)(F)F)CC2)c1)Nc1c[nH]c2cc(F)c(F)cc12 [Compound 213, 1-(5,6-difluoro-1H-indol-3-yl)-3-(2-(1-(2,2,2-trifluoroethyl)piperidin-4-yl)pyridin-4-yl)urea]
200 to 1000	O=C(Nc1cnn(C2CCC3(CC2)CC3)c1)Nc1c[nH]c2ccc(Cl)cc12 [Compound 214, 1-(5-chloro-1H-indol-3-yl)-3-(1-(spiro[2.5]octan-6-yl)-1H-pyrazol-4-yl)urea]
40 to 200	O=C(Nc1cc(Cl)nc(C2CCC(F)(F)CC2)c1)Nc1c[nH]c2ccc(Cl)cc12 [Compound 221, 1-(5-chloro-1H-indol-3-yl)-3-(2-chloro-6-(4,4-difluorocyclohexyl)pyridin-4-yl)urea]
200 to 1000	O=C(Nc1cnn(CC2CCC(F)(F)CC2)c1)Nc1c[nH]c2ccc(Cl)cc12 [Compound 222, 1-(5-chloro-1H-indol-3-yl)-3-(1-((4,4-difluorocyclohexyl)methyl)-1H-pyrazo1-4-yl)urea]
200 to 1000	O=C(Nc1cnc(N2CCC(F)(F)CC2)c(Cl)c1)Nc1c[nH]c2c(Br)cc(Cl)cc12 [Compound 232, 1-(7-bromo-5-chloro-1H-indol-3-yl)-3-(5-chloro-6-(4,4-difluoropiperidin-1-yl)pyridin-3-yl)urea]
40 to 200	O=C(Nc1cnc(N2CCC3(CC2)CC3(F)F)c(Cl)c1)Nc1c[nH]c2ccc(Cl)cc12 [Compound 237, 1-(5-chloro-1H-indol-3-yl)-3-(5-chloro-6-(1,1-difluoro-6-azaspiro[2.5]octan-6-yl)pyridin-3-yl)urea]
40 to 200	O=C(Nc1cnc(N2CCC3(CC2)CC3)c(F)c1)Nc1c[nH]c2ccc(Cl)cc12 [Compound 240, 1-(5-chloro-1H-indol-3-yl)-3-(5-fluoro-6-(6-azaspiro[2.5]octan-6-yl)pyridin-3-yl)urea]
40 to 200	O=C(Nc1cnc(N2CCC(F)(F)C2)c(Cl)c1)Nc1c[nH]c2ccc(Cl)cc12 [Compound 243, 1-(5-chloro-1H-indol-3-yl)-3-(5-chloro-6-(3,3-difluoropyrrolidin-1-yl)pyridin-3-yl)urea]
40 to 200	O=C(Nc1ccc(C2CC(F)(F)C2)c(Cl)c1)Nc1c[nH]c2ccccc12 [Compound 246, 1-(3-chloro-4-(3,3-difluorocyclobutyl)phenyl)-3-(1H-indol-3-yl)urea]
200 to 1000	O=C(Nc1cnc(N2CC3(CN(CC(F)(F)F)C3)C2)c(F)c1)Nc1c[nH]c2ccc(Cl)cc12 [Compound 249, 1-(5-chloro-1H-indol-3-yl)-3-(5-fluoro-6-(6-(2,2,2-trifluoroethyl)-2,6-diazaspiro[3.3]heptan-2-yl)pyridin-3-yl)urea]
